{"source": "ChEMBL document CHEMBL3227988", "about": "“Synthesis and antiviral activities of arabinofuranosyl-5-ethylpyrimidine nucleosides. Selective antiherpes activity of 1-(beta-D-arabinofuranosyl)-5-ethyluracil” (J Med Chem, 1979)", "key": {"[1]": {"tested_on": "Vaccinia virus", "assay": "Antiviral activity against Vaccinia virus infected in primary rabbit kidney cells assessed as inhibition of virus-induced cytopathogenicity treated immediately after virus adsorption measured 2 to 3 days after virus infection", "assay_type": "functional", "settings": "Orthopoxvirus vaccinia"}, "[2]": {"tested_on": "Vaccinia virus", "assay": "Antiviral activity against Vaccinia virus infected in primary rabbit kidney cells assessed as inhibition of virus-induced cytopathogenicity at 200 ug/ml treated immediately after virus adsorption measured 2 to 3 days after virus infection", "assay_type": "functional, organism-based", "settings": "Orthopoxvirus vaccinia"}}, "note": "Calls of active or inactive are those of the source. The calls are words filed in the database; no cut-off is given here.", "data": [{"smiles": "Nc1ccn([C@@H]2O[C@H](CO)[C@@H](O)[C@@H]2O)c(=O)n1", "note": "[CYTARABINE]", "values": [{"measurement": "MIC", "setting": "[1]", "value": 0.02, "unit": "µg/mL"}]}, {"smiles": "CCc1cn([C@H]2O[C@H](CO)[C@@H](O)[C@@H]2O)c(=O)nc1N", "values": [{"measurement": "inhibition", "setting": "[2]", "value": "inactive"}]}, {"smiles": "O=c1ccn([C@@H]2O[C@H](CO)[C@@H](O)[C@@H]2O)c(=O)[nH]1", "note": "[ARAURIDINE]", "values": [{"measurement": "MIC", "setting": "[1]", "value": "> 200", "unit": "µg/mL"}]}, {"smiles": "Cc1cn([C@@H]2O[C@H](CO)[C@@H](O)[C@@H]2O)c(=O)[nH]c1=O", "values": [{"measurement": "MIC", "setting": "[1]", "value": 4, "unit": "µg/mL"}]}, {"smiles": "CCc1cn([C@@H]2O[C@H](CO)[C@@H](O)[C@@H]2O)c(=O)[nH]c1=O", "values": [{"measurement": "MIC", "setting": "[1]", "value": "> 200", "unit": "µg/mL"}]}, {"smiles": "CCc1cn([C@@H]2O[C@H](CO)[C@@H](O)[C@@H]2O)c(=O)nc1N", "values": [{"measurement": "MIC", "setting": "[1]", "value": "> 200", "unit": "µg/mL"}]}, {"smiles": "CCc1cn([C@H]2O[C@H](CO)[C@@H](O)[C@@H]2O)c(=O)[nH]c1=O", "values": [{"measurement": "inhibition", "setting": "[2]", "value": "inactive"}]}]}
